The source made the active and inactive calls. The rule behind the calls is not given here.
Columns and labels:
LS174T [1] = assay: Antiproliferative activity against human LS174T cells harboring beta-catenin mutant assessed as reduction in cell viability measured after 72 hrs by SRB assay; format: functional, cell-based
LS174T [2] = assay: Inhibition of Wnt/beta-catenin transactivation signalling in human LS174T cells transfected with renilla luciferase and TOPFlash reporter gene incubated for 24 hrs by dual-luciferase assay; format: cell-based; settings: dose 2.5-20 µM, DDE = dose-dependent effect
LS174T [3] = assay: Induction of cell cycle arrest in human LS174T cells assessed as accumulation of cells at sub-G1 phase at 5 uM measured after 24 hrs by RNase A/propidium iodide staining based flow cytometric analysis (reference value: 1.3 %); format: functional
LS174T [4] = assay: Induction of cell cycle arrest in human LS174T cells assessed as accumulation of cells at S phase at 5 uM measured after 24 hrs by RNase A/propidium iodide staining based flow cytometric analysis (reference value: 14.5 %); format: functional
LS174T [5] = assay: Induction of cell cycle arrest in human LS174T cells assessed as accumulation of cells at G2/M phase at 5 uM measured after 24 hrs by RNase A/propidium iodide staining based flow cytometric analysis (reference value: 12.2 %); format: functional
LS174T [6] = assay: Induction of cell cycle arrest in human LS174T cells assessed as accumulation of cells at G0/G1 phase at 20 uM measured at 48 hrs by RNase A/propidium iodide staining based flow cytometric analysis (reference value: 74.8 %); format: functional
LS174T [7] = assay: Induction of apoptosis in human LS174T cells assessed as total cell death at 30 uM measured after 48 hrs by AnnexinV-FITC/PI staining based flowcytometry analysis relative to control; format: functional
LS174T [8] = assay: Induction of apoptosis in human LS174T cells assessed as upregulation of cleaved PARP expression measured after 48 hrs by Western blot analysis; format: functional, cell-based; settings: dose 20-40 µM, DDE = dose-dependent effect
Mus musculus [9] = assay: Downregulation of MMP-7 expression in tumor of BALB/c mouse xenografted with human LS174T cells at 10 to 30 mg/kg, ip administered 3 times per week for 21 days by Western blot analysis; format: functional, organism-based; settings: dose 10-30 mg/kg, time 21.0 day
Mus musculus [10] = assay: Downregulation of N-cadherin expression in tumor of BALB/c mouse xenografted with human LS174T cells at 10 to 30 mg/kg, ip administered 3 times per week for 21 days by Western blot analysis; format: functional, organism-based; settings: dose 10-30 mg/kg, time 21.0 day
Mus musculus [11] = assay: Downregulation of Ki-67 expression in tumor of BALB/c mouse xenografted with human LS174T cells at 10 to 30 mg/kg, ip administered 3 times per week for 21 days by immunohistochemical based analysis; format: functional, organism-based; settings: dose 10-30 mg/kg, time 21.0 day

O=c1c2ccccc2nc2n1CCc1c-2[nH]c2ccccc12 [RUTAECARPINE]
IC50 (LS174T [1]): 6.1 µM
inhibition (LS174T [2]): Dde
Activity (LS174T [3]): 1.4%
Activity (LS174T [4]): 10.7%
Activity (LS174T [5]): 11.8%
Activity (LS174T [6]): 76.9%
Activity (LS174T [7]): 65.7%
Activity (LS174T [8]): Dde
Activity (Mus musculus [9]): Active
Activity (Mus musculus [10]): Active
Activity (Mus musculus [11]): Active

From ChEMBL document CHEMBL5137022, “Antitumor Activity of Rutaecarpine in Human Colorectal Cancer Cells by Suppression of Wnt/β-Catenin Signaling” (J Nat Prod, 2022)
